Laboratory results published in patent publication US20030134859A1 (SANKYO COMPANY, LIMITED, priority 2000, published 2003).

Tested on: leptin production
Experiment: Enhancing activity for leptin production in adipocytes (ELISA)
Assay type: cell-based, rat
Conditions: leptin concentration as % of control group; for Facilitating activity to produce leptin: 24 hr
Method in brief: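 Leptin release, quantified by rat leptin ELISA, expressed as percent of 0.1% DMSO control after 24 h at 37 °C. Cells were floating adipocytes isolated by collagenase digestion of epididymal fat from male 6-week Wistar Imamichi rats; compound tested at 1 nM–1 µM final.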

[1] = Rattus norvegicus, Adipocyte, 24 h, 10 nm, read-out: Facilitating activity to produce leptin
[2] = Rattus norvegicus, Adipocyte, 24 h, 100 nm, read-out: Facilitating activity to produce leptin

Compound	activity at 0.01 µM [1] [%]	activity at 0.1 µM [2] [%]	activity at 1 µM (Rattus norvegicus, Adipocyte, 24 h, 1 μM, read-out: Facilitating activity to produce leptin) [%]	activity at 0.001 µM (Rattus norvegicus, Adipocyte, 24 h, 1 nm, read-out: Facilitating activity to produce leptin) [%]	Facilitating activity to produce leptin (1 μM) [%]	Facilitating activity to produce leptin (100 nm) [%]	Facilitating activity to produce leptin (10 nm) [%]	Facilitating activity to produce leptin (1 nm) [%]
O=C(NC(=S)NCCc1ccc(NC(=O)c2cc([N+](=O)[O-])ccc2Cl)cc1)c1ccccc1 [Example 271, N-[4-(2-Phenylcarbonylaminothiocarbonylaminoethyl)phenyl]-(2-chloro-5-nitrophenyl)carboxamide]	121	115						
CCS(=O)(=O)N(c1ccc(-c2ccc(NC(=O)c3cc([N+](=O)[O-])ccc3Cl)cc2)cc1)S(=O)(=O)CC [Example 276, N-[4-[4-(N,N-Diethanesulfonylamino)phenyl]phenyl]-(2-chloro-5-nitrophenyl)carboxamide]	112	123	117	108				
N-[3-(Pyrrolidinylsulfonyl)phenyl]-(2-chloro-5-nitrophenyl)carboxamide [Example 154]					116.9	109.5		
N-[4-(4-Methylbenzoylamino)phenyl]phenyl]-(2-chloro-5-nitrophenyl)carboxamide [Example 122]					128.5	128.5		
N-[4-(Benzenesulfonylaminophenyl)phenyl]-(2-chloro-5-nitrophenyl)carboxamide [Example 128]					137.3	130.8	108.8	
N-[4-[4-(Pyrrolidin-1-ylamino)phenyl]phenyl]-(2-chloro-5-nitrophenyl)carboxamide [Example 171]					126.7	128.1	115.4	113.2
